Calls of active or inactive are those of the source. How the calls were made is not given here.
How the values were obtained:
Assay in all cases: kinase panel binding selectivity, selectivity assay, biochemical, KINOMEscan (AID 1982)
[1] = system: ADCK4; conditions: KINOMEscan 353-kinase binding panel, qPCR, at 10 µM, active compounds read low
[2] = system: AURKC; conditions: KINOMEscan 353-kinase binding panel, qPCR, at 10 µM, active compounds read low
[3] = target: Aurora kinase B (Homo sapiens) (UniProt Q96GD4); conditions: KINOMEscan 353-kinase binding panel, qPCR; AURKB; at 10 µM; active compounds read low
Chain of Aurora kinase B (Homo sapiens) (Q96GD4 whole entry, looked up): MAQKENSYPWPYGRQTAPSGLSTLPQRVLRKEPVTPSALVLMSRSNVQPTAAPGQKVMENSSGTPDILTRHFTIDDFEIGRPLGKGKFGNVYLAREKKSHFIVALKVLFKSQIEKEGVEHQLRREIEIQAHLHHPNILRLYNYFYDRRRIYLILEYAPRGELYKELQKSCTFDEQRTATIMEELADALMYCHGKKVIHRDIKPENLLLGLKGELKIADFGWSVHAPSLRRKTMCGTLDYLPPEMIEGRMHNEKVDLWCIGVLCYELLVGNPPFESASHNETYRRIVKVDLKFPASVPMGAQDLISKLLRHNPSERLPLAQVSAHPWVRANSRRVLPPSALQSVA

[4] = system: BMX; conditions: KINOMEscan 353-kinase binding panel, qPCR, at 10 µM, active compounds read low
[5] = system: CSK; conditions: KINOMEscan 353-kinase binding panel, qPCR, at 10 µM, active compounds read low
[6] = target: Calcium/calmodulin-dependent protein kinase type 1 (Homo sapiens) (UniProt Q14012); conditions: KINOMEscan 353-kinase binding panel, qPCR; CAMK1; at 10 µM; active compounds read low
Chain of Calcium/calmodulin-dependent protein kinase type 1 (Homo sapiens) (Q14012 whole entry, looked up): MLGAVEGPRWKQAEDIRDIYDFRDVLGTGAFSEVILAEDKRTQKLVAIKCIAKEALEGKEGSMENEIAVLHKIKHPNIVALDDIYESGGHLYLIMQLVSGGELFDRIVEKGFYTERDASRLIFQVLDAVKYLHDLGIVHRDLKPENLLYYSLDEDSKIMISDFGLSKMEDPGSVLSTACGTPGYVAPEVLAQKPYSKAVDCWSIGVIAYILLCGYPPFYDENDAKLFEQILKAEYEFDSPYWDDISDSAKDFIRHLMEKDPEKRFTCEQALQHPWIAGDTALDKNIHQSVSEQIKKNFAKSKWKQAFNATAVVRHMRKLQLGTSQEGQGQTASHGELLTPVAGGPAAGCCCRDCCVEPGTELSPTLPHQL

[7] = target: Calcium/calmodulin-dependent protein kinase type II subunit beta (Homo sapiens) (UniProt Q13554); conditions: KINOMEscan 353-kinase binding panel, qPCR; CAMK2B; at 10 µM; active compounds read low
[8] = target: Calcium/calmodulin-dependent protein kinase type II subunit delta (Homo sapiens) (UniProt Q13557); conditions: KINOMEscan 353-kinase binding panel, qPCR; CAMK2D; at 10 µM; active compounds read low
[9] = system: DAPK1; conditions: KINOMEscan 353-kinase binding panel, qPCR, at 10 µM, active compounds read low
[10] = system: DAPK2; conditions: KINOMEscan 353-kinase binding panel, qPCR, at 10 µM, active compounds read low
[11] = system: ERK8; conditions: KINOMEscan 353-kinase binding panel, qPCR, at 10 µM, active compounds read low
[12] = target: Epidermal growth factor receptor (Homo sapiens) (UniProt P00533); conditions: KINOMEscan 353-kinase binding panel, qPCR, at 10 µM, active compounds read low
Chain of Epidermal growth factor receptor (Homo sapiens) (P00533 whole entry, looked up): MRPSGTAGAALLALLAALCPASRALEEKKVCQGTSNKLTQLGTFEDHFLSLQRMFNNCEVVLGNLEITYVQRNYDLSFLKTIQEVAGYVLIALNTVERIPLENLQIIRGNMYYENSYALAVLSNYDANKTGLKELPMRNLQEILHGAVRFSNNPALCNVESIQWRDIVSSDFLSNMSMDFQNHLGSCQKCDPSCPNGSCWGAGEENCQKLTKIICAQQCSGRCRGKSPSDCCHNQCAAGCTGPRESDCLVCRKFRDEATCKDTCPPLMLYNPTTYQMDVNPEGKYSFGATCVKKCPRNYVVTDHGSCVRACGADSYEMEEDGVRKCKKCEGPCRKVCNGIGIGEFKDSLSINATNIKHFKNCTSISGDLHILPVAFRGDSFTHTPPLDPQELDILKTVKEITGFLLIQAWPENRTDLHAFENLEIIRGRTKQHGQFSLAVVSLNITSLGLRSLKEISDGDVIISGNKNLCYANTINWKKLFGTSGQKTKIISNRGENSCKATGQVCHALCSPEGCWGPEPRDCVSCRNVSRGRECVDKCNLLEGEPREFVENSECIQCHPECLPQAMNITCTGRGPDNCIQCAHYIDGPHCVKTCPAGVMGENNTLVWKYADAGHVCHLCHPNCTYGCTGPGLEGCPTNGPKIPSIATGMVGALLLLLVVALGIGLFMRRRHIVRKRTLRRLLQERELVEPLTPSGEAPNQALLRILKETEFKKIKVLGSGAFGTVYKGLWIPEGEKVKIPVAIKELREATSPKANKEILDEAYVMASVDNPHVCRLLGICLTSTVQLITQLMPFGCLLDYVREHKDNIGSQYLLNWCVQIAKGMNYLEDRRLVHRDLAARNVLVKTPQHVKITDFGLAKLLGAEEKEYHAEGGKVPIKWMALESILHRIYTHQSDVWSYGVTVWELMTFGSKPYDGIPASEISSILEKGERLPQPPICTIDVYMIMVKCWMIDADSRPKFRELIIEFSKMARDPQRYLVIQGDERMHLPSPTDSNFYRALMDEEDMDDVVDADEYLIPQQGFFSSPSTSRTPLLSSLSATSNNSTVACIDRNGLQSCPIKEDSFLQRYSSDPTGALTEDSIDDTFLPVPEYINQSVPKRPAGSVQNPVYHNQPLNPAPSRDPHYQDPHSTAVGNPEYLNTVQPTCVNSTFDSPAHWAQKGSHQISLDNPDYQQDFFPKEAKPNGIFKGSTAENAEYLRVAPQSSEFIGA

[13] = target: Inhibitor of nuclear factor kappa-B kinase subunit beta (Homo sapiens) (UniProt O14920); conditions: KINOMEscan 353-kinase binding panel, qPCR; IKK-beta; at 10 µM; active compounds read low
[14] = system: LIMK2; conditions: KINOMEscan 353-kinase binding panel, qPCR, at 10 µM, active compounds read low
[15] = system: LKB1; conditions: KINOMEscan 353-kinase binding panel, qPCR, at 10 µM, active compounds read low
[16] = system: MEK6; conditions: KINOMEscan 353-kinase binding panel, qPCR, at 10 µM, active compounds read low
[17] = system: MERTK; conditions: KINOMEscan 353-kinase binding panel, qPCR, at 10 µM, active compounds read low
[18] = system: MRCKB; conditions: KINOMEscan 353-kinase binding panel, qPCR, at 10 µM, active compounds read low
[19] = target: Macrophage colony-stimulating factor 1 receptor (Homo sapiens) (UniProt P07333); conditions: KINOMEscan 353-kinase binding panel, qPCR; CSF1R; at 10 µM; active compounds read low
Chain of Macrophage colony-stimulating factor 1 receptor (Homo sapiens) (P07333 whole entry, looked up): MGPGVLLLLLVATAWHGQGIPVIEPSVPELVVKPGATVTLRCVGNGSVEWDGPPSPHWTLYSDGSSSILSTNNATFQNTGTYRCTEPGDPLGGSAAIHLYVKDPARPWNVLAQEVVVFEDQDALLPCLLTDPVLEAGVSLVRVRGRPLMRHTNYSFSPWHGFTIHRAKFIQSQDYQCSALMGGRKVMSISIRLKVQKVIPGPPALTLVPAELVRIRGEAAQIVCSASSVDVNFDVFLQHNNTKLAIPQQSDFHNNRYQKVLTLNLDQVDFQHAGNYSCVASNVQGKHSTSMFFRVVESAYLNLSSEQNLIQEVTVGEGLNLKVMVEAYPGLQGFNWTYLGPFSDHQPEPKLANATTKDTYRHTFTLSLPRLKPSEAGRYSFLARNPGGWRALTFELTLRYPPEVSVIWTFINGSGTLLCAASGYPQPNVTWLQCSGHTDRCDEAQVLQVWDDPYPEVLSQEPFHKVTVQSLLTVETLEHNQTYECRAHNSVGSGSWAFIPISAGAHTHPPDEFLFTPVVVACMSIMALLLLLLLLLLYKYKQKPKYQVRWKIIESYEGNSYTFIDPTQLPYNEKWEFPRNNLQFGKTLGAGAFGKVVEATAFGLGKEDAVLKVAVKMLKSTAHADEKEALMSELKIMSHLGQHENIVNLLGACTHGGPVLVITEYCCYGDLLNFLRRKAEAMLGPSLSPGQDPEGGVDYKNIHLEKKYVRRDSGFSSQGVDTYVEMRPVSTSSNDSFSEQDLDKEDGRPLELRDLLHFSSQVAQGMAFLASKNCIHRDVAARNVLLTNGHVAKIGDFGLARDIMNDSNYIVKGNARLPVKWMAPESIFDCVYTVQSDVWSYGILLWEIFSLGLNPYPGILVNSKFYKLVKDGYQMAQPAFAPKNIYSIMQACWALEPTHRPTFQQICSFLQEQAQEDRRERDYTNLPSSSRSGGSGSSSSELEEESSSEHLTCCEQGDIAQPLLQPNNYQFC

[20] = target: Mitogen-activated protein kinase 9 (Homo sapiens) (UniProt P45984); conditions: KINOMEscan 353-kinase binding panel, qPCR; JNK2; at 10 µM; active compounds read low
Chain of Mitogen-activated protein kinase 9 (Homo sapiens) (P45984 whole entry, looked up): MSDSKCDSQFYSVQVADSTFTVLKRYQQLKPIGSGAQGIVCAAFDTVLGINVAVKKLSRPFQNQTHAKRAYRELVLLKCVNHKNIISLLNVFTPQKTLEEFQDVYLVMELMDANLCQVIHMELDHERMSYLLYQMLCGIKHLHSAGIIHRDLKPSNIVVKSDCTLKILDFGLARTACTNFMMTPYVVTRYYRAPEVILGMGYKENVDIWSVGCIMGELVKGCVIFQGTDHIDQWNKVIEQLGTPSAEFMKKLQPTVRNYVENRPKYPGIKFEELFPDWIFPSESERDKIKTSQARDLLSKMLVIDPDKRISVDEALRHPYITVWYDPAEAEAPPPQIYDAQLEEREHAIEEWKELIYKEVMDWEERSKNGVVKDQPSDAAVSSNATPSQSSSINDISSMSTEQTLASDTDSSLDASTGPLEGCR

[21] = target: Mitogen-activated protein kinase kinase kinase kinase 5 (Homo sapiens) (UniProt Q9Y4K4); conditions: KINOMEscan 353-kinase binding panel, qPCR; MAP4K5; at 10 µM; active compounds read low
Chain of Mitogen-activated protein kinase kinase kinase kinase 5 (Homo sapiens) (Q9Y4K4 whole entry, looked up): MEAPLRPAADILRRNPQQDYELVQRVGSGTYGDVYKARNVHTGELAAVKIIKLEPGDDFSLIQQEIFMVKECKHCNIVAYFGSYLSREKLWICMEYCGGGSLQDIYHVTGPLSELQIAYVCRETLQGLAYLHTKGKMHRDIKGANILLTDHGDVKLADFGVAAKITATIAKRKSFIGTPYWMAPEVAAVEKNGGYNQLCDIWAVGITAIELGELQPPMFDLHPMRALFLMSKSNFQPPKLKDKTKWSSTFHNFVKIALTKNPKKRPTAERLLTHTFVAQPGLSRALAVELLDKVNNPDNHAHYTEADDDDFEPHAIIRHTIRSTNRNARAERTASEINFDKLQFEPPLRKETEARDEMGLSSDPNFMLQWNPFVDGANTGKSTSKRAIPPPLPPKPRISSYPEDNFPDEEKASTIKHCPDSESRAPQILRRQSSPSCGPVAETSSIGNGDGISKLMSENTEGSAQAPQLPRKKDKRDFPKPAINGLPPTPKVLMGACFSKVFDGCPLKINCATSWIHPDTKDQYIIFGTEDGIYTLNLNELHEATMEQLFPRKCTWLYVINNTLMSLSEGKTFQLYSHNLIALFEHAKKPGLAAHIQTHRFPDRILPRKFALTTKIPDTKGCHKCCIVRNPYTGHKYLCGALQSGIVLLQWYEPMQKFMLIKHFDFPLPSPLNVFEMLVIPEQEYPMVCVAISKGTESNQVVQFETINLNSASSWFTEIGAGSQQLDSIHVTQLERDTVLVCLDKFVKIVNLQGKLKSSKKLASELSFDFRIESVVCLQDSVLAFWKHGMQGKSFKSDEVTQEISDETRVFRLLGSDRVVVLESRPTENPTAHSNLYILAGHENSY

[22] = system: NEK9; conditions: KINOMEscan 353-kinase binding panel, qPCR, at 10 µM, active compounds read low
[23] = system: PFTK1; conditions: KINOMEscan 353-kinase binding panel, qPCR, at 10 µM, active compounds read low
[24] = system: RPS6KA2(Kin.Dom.1); conditions: KINOMEscan 353-kinase binding panel, qPCR, at 10 µM, active compounds read low
[25] = system: RPS6KA2(Kin.Dom.2); conditions: KINOMEscan 353-kinase binding panel, qPCR, at 10 µM, active compounds read low
[26] = system: RPS6KA6(Kin.Dom.1); conditions: KINOMEscan 353-kinase binding panel, qPCR, at 10 µM, active compounds read low
[27] = target: Ribosomal protein S6 kinase alpha-3 (Homo sapiens) (UniProt P51812); conditions: KINOMEscan 353-kinase binding panel, qPCR; RPS6KA3(Kin.Dom.1); at 10 µM; active compounds read low
Chain of Ribosomal protein S6 kinase alpha-3 (Homo sapiens) (P51812 whole entry, looked up): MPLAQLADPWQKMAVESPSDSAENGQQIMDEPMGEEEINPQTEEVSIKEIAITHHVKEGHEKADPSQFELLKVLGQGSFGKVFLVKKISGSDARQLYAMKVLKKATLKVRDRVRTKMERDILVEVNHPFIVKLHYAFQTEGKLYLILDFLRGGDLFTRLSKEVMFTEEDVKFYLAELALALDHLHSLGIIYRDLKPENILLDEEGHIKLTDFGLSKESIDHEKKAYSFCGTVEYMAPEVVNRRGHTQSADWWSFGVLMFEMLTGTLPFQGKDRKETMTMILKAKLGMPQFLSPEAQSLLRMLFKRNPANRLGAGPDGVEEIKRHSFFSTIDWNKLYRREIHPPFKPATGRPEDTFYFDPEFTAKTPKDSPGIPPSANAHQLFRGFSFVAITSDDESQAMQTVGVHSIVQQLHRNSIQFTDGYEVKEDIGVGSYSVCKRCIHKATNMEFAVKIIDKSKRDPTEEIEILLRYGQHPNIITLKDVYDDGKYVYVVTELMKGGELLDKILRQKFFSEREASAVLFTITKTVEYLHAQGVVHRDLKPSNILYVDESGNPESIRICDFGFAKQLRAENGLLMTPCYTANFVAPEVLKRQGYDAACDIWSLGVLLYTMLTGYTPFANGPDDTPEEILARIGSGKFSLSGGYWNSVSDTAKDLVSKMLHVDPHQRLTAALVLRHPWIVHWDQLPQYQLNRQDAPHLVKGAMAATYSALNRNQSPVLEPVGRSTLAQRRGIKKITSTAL

[28] = system: STK16; conditions: KINOMEscan 353-kinase binding panel, qPCR, at 10 µM, active compounds read low
[29] = system: TEC; conditions: KINOMEscan 353-kinase binding panel, qPCR, at 10 µM, active compounds read low
[30] = system: TXK; conditions: KINOMEscan 353-kinase binding panel, qPCR, at 10 µM, active compounds read low
[31] = target: Tyrosine-protein kinase HCK (Homo sapiens) (UniProt P08631); conditions: KINOMEscan 353-kinase binding panel, qPCR, at 10 µM, active compounds read low
[32] = target: Tyrosine-protein kinase SYK (Homo sapiens) (UniProt P43405); conditions: KINOMEscan 353-kinase binding panel, qPCR, at 10 µM, active compounds read low
[33] = target: Tyrosine-protein kinase receptor UFO (Homo sapiens) (UniProt P30530); conditions: KINOMEscan 353-kinase binding panel, qPCR; AXL; at 10 µM; active compounds read low
[34] = target: cGMP-dependent protein kinase 2 (Homo sapiens) (UniProt Q13237); conditions: KINOMEscan 353-kinase binding panel, qPCR; PRKG2; at 10 µM; active compounds read low

Measured: percent of control binding

Cc1cc2nc(NCCCO)n(CC(=O)c3cc(C(C)(C)C)c(O)c(C(C)(C)C)c3)c2cc1C
inactive: [1] 100% | [2] 100% | [3] 100% | [4] 84% | [5] 100% | [6] 100% | [7] 100% | [8] 89% | [9] 87% | [10] 100% | [11] 100% | [12]; EGFR(E746-A750del) 100% | [12]; EGFR(G719C) 89% | [12]; EGFR(G719S) 100% | [12]; EGFR(L747-E749del, A750P) 87% | [12]; EGFR(L747-S752del, P753S) 100% | [12]; EGFR(L747-T751del,Sins) 97% | [12]; EGFR(L858R) 77% | [12]; EGFR(L861Q) 59% | [12]; EGFR(S752-I759del) 100% | [12]; EGFR 86% | [13] 78% | [14] 80% | [15] 100% | [16] 97% | [17] 100% | [18] 100% | [19] 72% | [20] 100% | [21] 83% | [22] 100% | [23] 88% | [24] 90% | [25] 100% | [26] 97% | [27] 92% | [28] 77% | [29] 98% | [30] 99% | [31] 93% | [32] 100% | [33] 84% | [34] 100%
